Where two headings read alike, the source gives them in different places.
What was measured:
HT1376 = assay: In vitro anticancer activity, bladder carcinoma efficacy models (cytotoxicity/clonogenic); type: cell-based, human; settings: HT1376, varied concentrations
Experimental: (§1) Human bladder cancer cell lines HTB-5, HT-1376 and T-24 were purchased from American Type Culture Collection, USA. Cell lines HTB-5 and HT1376 were routinely cultured in Eagle's Minimum Essential Medium with 10% fetal bovine serum and T-24 in McCoy's 5A medium with 10% fetal bovine serum. All cell lines were maintained at 37° C. in a humidified atmosphere containing 5% CO2.
(§2) In vitro cytotoxicity assay: Cells were plated in 96-well cell culture plates (4×10^3 cells/well) and were treated with drugs at various concentrations. Treated cells were maintained at 37° C. in 5% CO2 for 48 and 72 hrs. After the incubation antiproliferative activity of test compounds was measured using ProMega Cell Titer aqueous one solution cell proliferation assay kit, viz. CellTiter 96® AQueous One Solution Reagent. Cells were incubated for 1-4 hours at 37° C., 5% CO2 incubator and absorbance was measured at 490 nm using a plate reader. IC50 values were determined by plotting compound concentration versus cell viability.
(§3) Clonogenic assay: bladder cancer cell lines viz HTB-5, HT-1376 and T-24 cells were plated at different densities i.e. 300 cells/well and 400 cells/well respectively in 3 ml volume per well into six-well plates and incubated overnight at 37° C. in a 5% CO2 incubator. […] Medium with drug was then replaced with medium without drug and plates were further incubated till visible colonies appeared (approximately for 12-14 days). Cells were then fixed with methanol:glacial acetic acid (2:1) and stained with 0.5% crystal violet. After staining for 2-3 min, plates were rinsed twice with D/W, dried and images were captured.

HTB-5 = assay: as above; type: cell-based, human; settings: HTB-5, varied concentrations
Experimental: as §1, §2, §3

T-24 = assay: as above; type: cell-based, human; settings: T-24, varied concentrations
Experimental: as §1, §2, §3

BXF 1036 [1] = assay: In vitro 2D assay, CellTiter-Blue Cell Viability Assay; type: cell-based; settings: Homo sapiens, BXF 1036, 96 h, read-out: Absolute IC50 values
Experimental: (§4) The in-vitro anti-tumor activity of terconazole was assessed in five selected human bladder cancer cell lines. The test compounds were applied at 9 concentrations in half-log increments. As a reference compound cisplatin was tested in parallel. Cells were treated for 96 h with the test compounds. Anti-tumor activity was assessed by using the CellTiter-Blue® Cell Viability Assay. Potency is expressed as absolute IC50 and relative IC50 values, calculated by non-linear regression analysis.
(§5) Tumor Cell Lines: In the present study the human bladder cancer cell lines BXF 1036, BXF 1218, BXF 1352, 5637 and T24 were used. BXF 1036, BXF 1218 and BXF 1352 were established at Oncotest from the corresponding human patient derived xenograft. T24 was purchased from ATCC (Rockville, Md., USA) and 5637 was from DSMZ (Braunschweig, Germany). Authenticity of cell lines was confirmed at the DSMZ by STR (short tandem repeat) analysis, a PCR based DNA-fingerprinting methodology. Cell lines were routinely passaged once or twice weekly and maintained in culture for up to 20 passages. All cells were grown at 37° C. in a humidified atmosphere with 5% CO2 in RPMI 1640 medium (25 mM HEPES, with L-glutamine, #FG1385, Biochrom, Berlin, Germany) supplemented with 10% (v/v) fetal calf serum (Sigma, Taufkirchen, Germany) and 0.1 mg/mL gentamicin (Life Technologies, Karlsruhe, Germany).
(§6) Cell Proliferation Assay: The CellTiter-Blue® Cell Viability Assay (#G8081, Promega) was used according to manufacturer's instructions. Briefly, cells were harvested from exponential phase cultures, […] on the cell line's growth rate. After a 24 h recovery period to allow the cells to resume exponential growth, test compounds were added. Compounds were applied at 9 concentrations in half-log increments in duplicate and treatment continued for 96 h. After 96 h treatment of cells, 20 μL/well CellTiter-Blue® reagent was added.
(§7) Following an incubation period of up to four hours, fluorescence (FU) was measured by using the Enspire Multimode Plate Reader (excitation k=531 nm, emission k=615 nm). For calculations, the mean values of duplicate/sixfold (untreated control) data were used. Sigmoidal concentration-response curves were fitted to the data points (T/C values) obtained for each cell line using 4 parameter non-linear curve fit (Oncotest Warehouse Software).

BXF 1218 [2] = assay: as above; type: cell-based; settings: Homo sapiens, BXF 1218, 96 h, read-out: Absolute IC50 values
Experimental: as §4, §5, §6, §7

BXF 1352 [3] = assay: as above; type: cell-based; settings: Homo sapiens, BXF 1352, 96 h, read-out: Absolute IC50 values
Experimental: as §4, §5, §6, §7

BXF 5637 [4] = assay: as above; type: cell-based; settings: Homo sapiens, BXF 5637, 96 h, read-out: Absolute IC50 values
Experimental: as §4, §5, §6, §7

BXF T24 [5] = assay: as above; type: cell-based; settings: Homo sapiens, BXF T24, 96 h, read-out: Absolute IC50 values
Experimental: as §4, §5, §6, §7

[6] = tested on: five selected human bladder cancer cell lines; assay: In vitro 2D assay, CellTiter-Blue Cell Viability Assay, mean over panel; type: cell-based; settings: 96 h, read-out: Geometric Mean Absolute IC50 values
Experimental: as §4
as §5, with “All cells were grown at 37° C. in a humidified atmosphere with 5% CO2 in RPMI 1640 medium (25 mM HEPES, with L-glutamine, #FG1385, Biochrom, Berlin, Germany) supplemented with 10% (v/v) fetal calf serum (Sigma, Taufkirchen, Germany) and 0.1 mg/mL gentamicin (Life Technologies, Karlsruhe, Germany).” left out
Following an incubation period of up to four hours, fluorescence (FU) was measured by using the Enspire Multimode Plate Reader (excitation k=531 nm, emission k=615 nm). […]

BXF 1036 [7] = assay: In vitro 3D clonogenic assay (colony formation in semi-solid medium); type: cell-based; settings: Homo sapiens, read-out: Absolute IC50 values
Experimental: (§8) In the present study, terconazole and cisplatin were evaluated for their ability to inhibit anchorage independent growth and ex vivo colony formation of tumor cells in semi-solid medium. The compounds were tested against 5 human tumor cell lines of bladder cancer. Test concentrations ranged, from 0.0316 μM to 316.2 μM (terconazole), or from 0.00316 μM to 100 μM (cisplatin).
(§9) Terconazole and the reference compound cisplatin were investigated for anticancer activity ex vivo in five human tumor cell lines of bladder cancer. Tests were carried out using a 3D clonogenic assay in 96-well format with image based read-out. The aim of the study was to investigate antitumor potency and tumor type selectivity of the compound.
(§10) Clonogenic Assay Procedure: The clonogenic assay was carried out in a 96 well plate format using ultra low attachment plates. For each test, cells were prepared as described above and assay plates were prepared as follows: each test well contained a layer of semi-solid medium with tumor cells (50 and a second layer of medium supernatant with or without test compound (100 The cell layer consisted of 2·10^3 to 3·10^3 tumor cells per well, which were seeded in 50 μL/well cell culture medium (IMDM, supplemented with 20% (v/v) fetal calf serum, 0.01% (w/v) gentamicin, and 0.4% (w/v) agar. After 24 hours the test compounds were added after serial dilution in cell culture medium, and left on the cells for the duration of the experiment (continuous exposure, 100 μl drug overlay). Every plate included six untreated control wells and drug-treated groups in duplicate at 9 concentrations. Cultures were incubated at 37° C. and 7.5% CO2 in a humidified atmosphere for 8 to 13 days and monitored closely for colony growth using an inverted microscope. Within this period, ex vivo tumor growth led to the formation of colonies with a diameter of >50 μm. At the time of maximum colony formation, counts were performed with an automatic image analysis system (Bioreader 5000-Wa Biosys GmbH). 48 hours prior to evaluation, vital colonies were stained with a sterile aqueous solution of 2-(4-iodophenyl)-3-(4-nitrophenyl)-5-phenyltetrazolium chloride (1 mg/ml, 100 μl/well)

BXF 1218 [8] = assay: as above; type: cell-based; settings: Homo sapiens, read-out: Absolute IC50 values
Experimental: as §8, §9, §10

BXF 1352 [9] = assay: as above; type: cell-based; settings: Homo sapiens, read-out: Absolute IC50 values
Experimental: as §8, §9, §10

BXF 5637 [10] = assay: as above; type: cell-based; settings: Homo sapiens, read-out: Absolute IC50 values
Experimental: as §8, §9, §10

BXF T24 [11] = assay: as above; type: cell-based, human; settings: read-out: Absolute IC50 values
Experimental: as §8, §9
Clonogenic Assay Procedure: The clonogenic assay was carried out in a 96 well plate format using ultra low attachment plates. […] Cultures were incubated at 37° C. and 7.5% CO2 in a humidified atmosphere for 8 to 13 days and monitored closely for colony growth using an inverted microscope. […]

[12] = tested on: 5 human tumor cell lines of bladder cancer; assay: In vitro 3D clonogenic assay, panel summary; type: cell-based; settings: for IC50: Homo sapiens
Experimental: as §8, §9, §10

BXF 1036L = assay: In vitro combination study, 3D clonogenic assay, 5x5 matrix; type: cell-based; settings: Homo sapiens, monotherapy controls of 5x5 matrix, soft agar, read-out: IC50, colony formation, single agent
Experimental: (§11) Summary: Terconazole was tested alone and in combination with cisplatin in order to investigate the ability to inhibit tumor cell growth of bladder cancer cell lines in a 5×5 matrix combination format. Efficacy of the combinations was assessed by measuring anchorage-independent growth and in vitro tumor colony formation using a 3D clonogenic assay in cell lines BXF 1036L, BXF 1218L, and BXF T24.
(§12) The objective of this study was to assess anti-tumor efficacy of CIPDE033 and CIPDE034 in combination with cisplatin in a 5×5 matrix combination format against various bladder cancer cell lines. Efficacy of the combinations was assessed by measuring anchorage-independent growth and in vitro tumor colony formation using a 3D clonogenic assay in cell lines BXF 1036L, BXF 1218L, and BXF T24. […]
(§13) Cultivation of Cell Lines: Cell lines were routinely passaged once or twice weekly and maintained in culture for up to 20 passages. […] The percentage of viable cells was determined in a Neubauer-hemocytometer using trypan blue exclusion.
(§14) 3D Clonogenic Assay Procedure: The clonogenic assay was carried out in a 96 well plate format using ultra low attachment plates. […] Cultures were incubated at 37° C. and 7.5% CO2 in a humidified atmosphere for 8 to 13 days and monitored closely for colony growth using an inverted microscope. […]

BXF T24 [13] = assay: as above; type: cell-based; settings: Homo sapiens; monotherapy controls of 5x5 matrix, BXF T24, soft agar; read-out: IC50, colony formation, single agent
Experimental: as §11, §12, §13, §14

rat spleen HO-1 = molecular target: T1, rat spleen HO-1 (Rattus norvegicus, UniProt P06762); settings: reported in literature; read-out: IC50, inhibition of rat spleen HO-1 activity; cited from earlier work
T1 construct: host or cells: rat spleen
T1 sequence (P06762 1-289): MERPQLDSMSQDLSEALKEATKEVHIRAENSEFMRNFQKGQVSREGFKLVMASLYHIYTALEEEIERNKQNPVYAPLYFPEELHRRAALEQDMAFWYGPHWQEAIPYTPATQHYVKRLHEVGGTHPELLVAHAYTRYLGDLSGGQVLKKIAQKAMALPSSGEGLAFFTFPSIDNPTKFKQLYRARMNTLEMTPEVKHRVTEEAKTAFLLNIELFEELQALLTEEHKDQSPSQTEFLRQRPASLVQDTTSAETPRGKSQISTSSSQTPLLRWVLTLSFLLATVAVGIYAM

SMILES: CC(C)N1CCN(c2ccc(OC[C@@H]3CO[C@@](Cn4cncn4)(c4ccc(Cl)cc4Cl)O3)cc2)CC1 (racemic) [Terconazole]
- anticancer activity in vitro (HT1376): significant anticancer activity
- anticancer activity in vitro (HTB-5): significant anticancer activity
- anticancer activity in vitro (T-24): significant anticancer activity
- IC50 (BXF 1036 [1]): 29.4 µM
- IC50 (BXF 1218 [2]): 46.9 µM
- IC50 (BXF 1352 [3]): 45.9 µM
- IC50 (BXF 5637 [4]): 38.4 µM
- IC50 (BXF T24 [5]): 41.5 µM
- IC50 [6]: 39.9 µM
- IC50 (BXF 1036 [7]): 29.7 µM
- IC50 (BXF 1218 [8]): 40.3 µM
- IC50 (BXF 1352 [9]): 36.6 µM
- IC50 (BXF 5637 [10]): 30.8 µM
- IC50 (BXF T24 [11]; Homo sapiens): 33.1 µM
- Bottom plateaus of the concentration-effect curves ([12]; 3D clonogenic assay, responding tumor models): 0%
- IC50 ([12]; read-out: mean relative IC50 value): 33.5 µM
- IC50 ([12]; 3D clonogenic assay, colony formation, read-out: IC50 values, range over all bladder cancer cell lines tested): 29.6 to 40.1 µM
- IC50 ([12]; 3D clonogenic assay, five cell lines, read-out: Geometric Mean Absolute IC50 values): 33.9 µM
- IC50 (BXF 1036L): 27.1 µM
- IC50 (BXF T24 [13]): 59.8 µM
- IC50 (rat spleen HO-1): 0.41 ± 0.01 µM

SMILES: N.N.[Cl][Pt][Cl] [Cisplatin, cisplatin]
- IC50 (BXF T24 [11]): 53 µM

Source: patent US11207319B2, “Method for the treatment of bladder cancer” (Cipla Limited, priority 2015, dated 2021)
